One series deals with HIV-1 (H9/IIB strain). Description: Multiple Round HIV-1 Infection Assay (Viking Assay) in MT4-GFP cells. It counts as cell-based. The settings on record: inhibition of reproductive ratio R0. In short, it runs like this:
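MT-4 cells with tat/rev-dependent GFP reporter infected overnight with virus at MOI ~0.01, then incubated in RPMI with 10% or 50% normal human serum with 10-point 3-fold dilutions (typically 8.4 μM–0.42 nM final). Green cells counted at ~48 and ~72 h to give R0; IC50 from 4-parameter fit of R0 inhibition.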

Series [1] can be described thus: Prodrug Stability Assay in Bio-Relevant Media (FaSSIF with Pancreatin). Format: in vitro ADME. The conditions noted are these: 0.5 mg/mL Pancreatin in FaSSIF, 37° C.; HPLC peak area of prodrug at 5 h divided by that at 0 h. The method, then: Prodrug Stability Assay in Bio-Relevant Media
The following assay was employed to evaluate the stability of the prodrugs in simulated gastrointestinal tract conditions. Preparation of fasted state simulated intestinal fluid (FaSSIF) using Phares SIF Powder was carried out according to protocols from Phare Drug Delivery AG (Baselland, Switzerland). For sample preparation, 10 μL stock solutions (10 mM) of prodrug substance in DMSO was added to 990 μL of 0.5 mg/mL Pancreatin solution (Fisher CAS #8049-47-6) in FaSSIF. Two samples were prepared for each compound. If the sample was a clear solution, it was directly analyzed by HPLC. If the sample was not clear, the sample was diluted with 100% MeCN, maintained at 37° C. and observed 5 h later. If the sample was clear, HPLC analysis was directly performed. If the sample was still not clear, the sample was diluted with 100% ACN and assayed by HPLC. All the samples were vortexed for 3 min and observed before injection. For the diluted samples, the area is multiplied by a dilution factor when the data is analyzed. The analysis was carried out with an Agilent 1100 series HPLC with autosampler. The column was a Poroshell 120 EC-C18, 4.6×50 mm, 2.7 μm. The flow rate was 1.8 mL/min, and the injection volume was 5 or 10 μL. UV detection was in the range 210-400 nm. The mobile phase consisted of solvent A (water plus 10 mM tetrabutylammonium bromide) and solvent B (acetonitrile) with a gradient of: 90% solvent A at 0 min, changing to 95% solvent B over 6 min, maintaining for 1.5 min, then reverting to 90% solvent A over 1.6 min. The HPLC peak area of the prodrug at 5 h was divided by the HPLC peak area of the prodrug at 0 h, to generate the % claimed parent ratio, which is summarized in Table 2 for gastrointestinal (GI) Tract stability.

[2] abbreviates: MT4-GFP cells infected with HIV-1, 10% normal human serum, read-out: Viking, IC50 (10% NHS).
Where [3] appears, read: MT4-GFP cells infected with HIV-1, 50% normal human serum, read-out: Viking, IC50 (50% NHS).

Where two headings read alike, the source gives them in different places.

Turning to `CCCOC(=O)C(C)(C)NP(=O)(CO[C@H](C)Cn1cnc2c(N)ncnc21)N[C@H](C)c1ccc(OC(F)(F)F)cc1C` (stereo partly drawn) [Example 21B, Propyl 2-(((R)-((((R)-1-(6-amino-9H-purin-9-yl)propan-2-yl)oxy)methyl)(((R)-1-(2-methyl-4-(trifluoromethoxy)phenyl)ethyl)amino)phos-phoryl)amino)-2-methylpropanoate and propyl 2-(((S)-((((R)-1-(6-amino-9H-purin-9-yl)propan-2-yl)oxy)methyl)(((R)-1-(2-methyl-4-(trifluoromethoxy)phenyl)ethyl)amino)phos-phoryl)amino)-2-methylpropanoate], the IC50 in the series on HIV-1 (H9/IIB strain) (setting [2]) turned out to be 1 nM; with HIV-1 (H9/IIB strain) (setting [3]), 5.8 nM. Besides, the “GI Tract stability (%)” value in series [1] is on record as 71.5%.

With `CC(C)OC(=O)C(C)(C)N[P@@](=O)(CO[C@H](C)Cn1cnc2c(N)ncnc21)NC1(c2ccc(Cl)cc2)CC1` [Example 37B, isopropyl 2-(((R)-((((R)-1-(6-amino-9H-purin-9-yl)propan-2-yl)oxy)methyl)((1-(4-chlorophenyl)cyclopropyl)amino)phos-phoryl)amino)-2-methylpropanoate and isopropyl 2-(((S)-((((R)-1-(6-amino-9H-purin-9-yl)propan-2-yl)oxy)methyl)((1-(4-chlorophenyl)cyclopropyl)amino)phos-phoryl)amino)-2-methylpropanoate], the IC50 in the series on HIV-1 (H9/IIB strain) (setting [2]) was 5.1 nM; in the series on HIV-1 (H9/IIB strain) (setting [3]), 30 nM. For the same compound, the “GI Tract stability (%)” value in series [1] was 21.1%.

For `CCCOC(=O)C(C)(C)N[P@@](=O)(CO[C@H](C)Cn1cnc2c(N)ncnc21)N[C@H](C)c1ccc(Cl)cc1C` [Example 29B, propyl 2-(((R)-((((R)-1-(6-amino-9H-purin-9-yl)propan-2-yl)oxy)methyl)(((R)-1-(4-chloro-2-methylphenyl)ethyl)amino)phosphoryl)ami-no)-2-methylpropanoate and propyl 2-(((S)-((((R)-1-(6-amino-9H-purin-9-yl)propan-2-yl)oxy)methyl)(((R)-1-(4-chloro-2-methyphenyl)ethyl)amino)phosphoryl)ami-no)-2-methylpropanoate], the IC50 is 2.5 nM with HIV-1 (H9/IIB strain) (setting [2]) and 21 nM in the series with HIV-1 (H9/IIB strain) (setting [3]). The “GI Tract stability (%)” value in series [1] is 12.1%.

As for `CCCOC(=O)C(C)(C)NP(=O)(CO[C@H](C)Cn1cnc2c(N)ncnc21)N[C@@H](C)c1ccc(OC(F)(F)F)cc1` (stereo partly drawn) [Example 19A, propyl 2-(((R)-((((R)-1-(6-amino-9H-purin-9-yl)propan-2-yl)oxy)methyl)(((S)-1-(4-(trifluoromethoxy)phenyl)ethyl)amino)phos-phoryl)amino)-2-methylpropanoate and propyl 2-(((S)-((((R)-1-(6-amino-9H-purin-9-yl)propan-2-yl)oxy)methyl)(((S)-1-(4-(trifluoromethoxy)phenyl)ethyl)amino)phos-phoryl)amino)-2-methylpropanoate], the IC50 with HIV-1 (H9/IIB strain) (setting [2]) is 2.7 nM; with HIV-1 (H9/IIB strain) (setting [3]), 12 nM. For the same compound, the “GI Tract stability (%)” value in series [1] turned out to be 98.1%.

As to `CCCOC(=O)C(C)(C)N[P@@](=O)(CO[C@H](C)Cn1cnc2c(N)ncnc21)N[C@H](C)c1cccc(F)c1` [Example 9B, propyl 2-(((R)-((((R)-1-(6-amino-9H-purin-9-yl)propan-2-yl)oxy)methyl)(((R)-1-(3-fluorophenyl)ethyl)amino)phosphoryl)ami-no)-2-methylpropanoate and propyl 2-(((S)-((((R)-1-(6-amino-9H-purin-9-yl)propan-2-yl)oxy)methyl)(((R)-1-(3-fluorophenyl)ethyl)amino)phosphoryl)ami-no)-2-methylpropanoate], the results for the IC50 in the series on HIV-1 (H9/IIB strain) (setting [2]) and in the series with HIV-1 (H9/IIB strain) (setting [3]) were 12 nM and 130 nM, respectively. For the same compound, the “GI Tract stability (%)” value in series [1] is 90.9%.

Take `CC(C)OC(=O)C(C)(C)NP(=O)(CO[C@H](C)Cn1cnc2c(N)ncnc21)N[C@H](C)c1ccc(OC(F)(F)F)cc1` (stereo partly drawn) [Example 34B, isopropyl 2-(((R)-((((R)-1-(6-amino-9H-purin-9-yl)propan-2-yl)oxy)methyl)(((R)-1-(4-(trifluoromethoxy)phenyl)ethyl)amino)phos-phoryl)amino)-2-methylpropanoate and isopropyl 2-(((S)-((((R)-1-(6-amino-9H-purin-9-yl)propan-2-yl)oxy)methyl)(((R)-1-(4-(trifluoromethoxy)phenyl)ethyl)amino)phos-phoryl)amino)-2-methylpropanoate]: the half-inhibitory concentration (IC50) in the series on HIV-1 (H9/IIB strain) (setting [2]) came out at 1.5 nM; in the series on HIV-1 (H9/IIB strain) (setting [3]) it was 7.9 nM. For the same compound, the “GI Tract stability (%)” value in series [1] was determined as 67.4%.

On to `CCCOC(=O)C(C)(C)NP(=O)(CO[C@H](C)Cn1cnc2c(N)ncnc21)N[C@H](C)c1ccc(Cl)cc1` (single isomer, unassigned) [Example 1B], for which the half-inhibitory concentration (IC50) is 4.7 nM in the series on HIV-1 (H9/IIB strain) (Human immunodeficiency virus 1, MT4-GFP cells infected with HIV-1, 10% normal human serum, read-out: Viking, IC50 (10% NHS)) and 36 nM in the series with HIV-1 (H9/IIB strain) (Human immunodeficiency virus 1, MT4-GFP cells infected with HIV-1, 50% normal human serum, read-out: Viking, IC50 (50% NHS)). In addition, the “GI Tract stability (%)” value in series [1] is recorded as 98.7%.

`CCCOC(=O)C(C)(C)NP(=O)(CO[C@H](C)Cn1cnc2c(N)ncnc21)N[C@H](C)c1ccc(C#N)cc1` (stereo partly drawn) [Example 31B, propyl 2-(((R)-((((R)-1-(6-amino-9H-purin-9-yl)propan-2-yl)oxy)methyl)(((R)-1-(4-cyanophenyl)ethyl)amino)phosphoryl)ami-no)-2-methylpropanoate and propyl 2-(((S)-((((R)-1-(6-amino-9H-purin-9-yl)propan-2-yl)oxy)methyl)(((R)-1-(4-cyanophenyl)ethyl)amino)phosphoryl)ami-no)-2-methylpropanoate]: the IC50 in the series with HIV-1 (H9/IIB strain) (setting [2]) was 8.8 nM; in the series on HIV-1 (H9/IIB strain) (setting [3]), 110 nM. Further, the “GI Tract stability (%)” value in series [1] was determined as 90.6%.

Take `CC(C)OC(=O)C(C)(C)N[P@@](=O)(CO[C@H](C)Cn1cnc2c(N)ncnc21)N[C@H](C)c1ccc(Cl)cc1` [Example 35B, isopropyl 2-(((R)-((((R)-1-(6-amino-9H-purin-9-yl)propan-2-yl)oxy)methyl)(((R)-1-(4-chlorophenyl)ethyl)amino)phosphoryl)ami-no)-2-methylpropanoate and isopropyl 2-(((S)-((((R)-1-(6-amino-9H-purin-9-yl)propan-2-yl)oxy)methyl)(((R)-1-(4-chlorophenyl)ethyl)amino)phosphoryl)ami-no)-2-methylpropanoate]: the IC50 came out at 2.9 nM with HIV-1 (H9/IIB strain) (setting [2]) and 22 nM in the series with HIV-1 (H9/IIB strain) (setting [3]). Further, the “GI Tract stability (%)” value in series [1] is given as 70.5%.

For the compound `CCCOC(=O)C(C)(C)N[P@](=O)(CO[C@H](C)Cn1cnc2c(N)ncnc21)N(C)[C@H](C)c1ccc(OC(F)(F)F)cc1` [Example 33B, propyl 2-(((R)-((((R)-1-(6-amino-9H-purin-9-yl)propan-2-yl)oxy)methyl)(methyl((R)-1-(4-(trifluoromethoxy)phenyl)ethyl)amino)phos-phoryl)amino)-2-methylpropanoate and propyl 2-(((S)-((((R)-1-(6-amino-9H-purin-9-yl)propan-2-yl)oxy)methyl)(methyl((R)-1-(4-(trifluoromethoxy)phenyl)ethyl)amino)phos-phoryl)amino)-2-methylpropanoate], the IC50 in the series on HIV-1 (H9/IIB strain) (setting [2]) amounted to 2.2 nM; in the series on HIV-1 (H9/IIB strain) (setting [3]) it was 7.1 nM. Besides, the “GI Tract stability (%)” value in series [1] was determined as 97.2%.

In the case of `CCCOC(=O)C(C)(C)N[P@@](=O)(CO[C@H](C)Cn1cnc2c(N)ncnc21)NCc1ccc(OC(F)(F)F)cc1` [Example 7A, propyl 2-(((R)-((((R)-1-(6-amino-9H-purin-9-yl)propan-2-yl)oxy)methyl)((4-(trifluoromethoxy)benzyl)amino)phos-phoryl)amino)-2-methylpropanoate and propyl 2-(((S)-((((R)-1-(6-amino-9H-purin-9-yl)propan-2-yl)oxy)methyl)((4-(trifluoromethoxy)benzyl)amino)phos-phoryl)amino)-2-methylpropanoate], the half-inhibitory concentration (IC50) came to 4.5 nM with HIV-1 (H9/IIB strain) (setting [2]) and 27 nM with HIV-1 (H9/IIB strain) (setting [3]). Besides, in series [1], the “GI Tract stability (%)” value is 96.0%.

In the case of `CCCOC(=O)C(C)(C)NP(=O)(CO[C@H](C)Cn1cnc2c(N)ncnc21)N[C@H](c1ccc(OC(F)(F)F)cc1)C(F)(F)F` (stereo partly drawn) [Example 4A], the IC50 is 3.5 nM in the series on HIV-1 (H9/IIB strain) (setting [2]) and 29 nM in the series on HIV-1 (H9/IIB strain) (setting [3]). The “GI Tract stability (%)” value in series [1] was found to be 95.8%.

The IC50 is the point on the concentration scale where inhibition reaches its midpoint.

For the origin of these results see patent US11123355B2, “Antiviral benzyl-amine phosphodiamide compounds” (Merck Sharp & Dohme Corp., priority 2016, dated 2021).
